1 molecule from patent US20120232011A1, “Use of Rapamycin and Rapamycin Derivatives for the Treatment of Bone Loss” (priority 2003, published 2012) can be followed below.

Read-outs that look alike come from different tables or passages of the source.

The test system of experiment [1] is cancellous bone loss after ovariectomy. Description: Ovariectomized rat model. Format: in vivo. As for the experimental part: Before operation, the tibial bone mass and geometry of the animals is measured at baseline by dual-energy x-ray absorptiometry (DEXA) and periphere quantitative computer tomography (pQCT). Following ovariectomy (OVX) or sham operation, skeletally mature rats are treated for 8 weeks daily with 0.15 mg/kg, 0.5 mg/kg, 1.5 mg/kg, or 3.0 mg/kg of rapamycin or a rapamycin derivative, e.g. Compound A, or vehicle alone by oral administration or once a week with 1.5 mg/kg or 5.0 mg/kg of rapamycin or a rapamycin derivative; e.g. Compound A. At the beginning of the treatment, animals receive a fluorochrome label, e.g. calcein (e.g. 30 mg/kg, subcutaneous (s.c.)). Changes in bone mass and geometry (pQCT, DEXA) are evaluated in vivo after 4 weeks of treatment and at 8 weeks before necropsy. Body weight is monitored weekly. The animals are administered two further fluorochrome labels for marking of bone mineralization prior to necropsy, e.g. alizarin e.g. 20 mg/kg, s.c., 10 days prior to necropsy, and calcein e.g. 30 mg/kg, s.c., 3 days prior to necropsy. Blood samples (500 μl blood) are taken in heparin before necropsy and frozen at −20° C. for analysis of calcium, phosphate, TRAP, ALP, and osteocalcin. DEXA measurements are carried out at necropsy on excised tibia, femur, and lumbar vertebrae.

The test system of experiment [2] is bone-resorbing osteoclasts differentiated from peripheral blood mononuclear cells. Description: Human osteoclastogenesis assay. Format: cell-based. Here is the method: Peripheral blood mononuclear cells from healthy male donors are differentiated into bone-resorbing osteoclasts by treatment with a cytokine cocktail containing RANKL, M-CSF and transforming growth factor (TGF)-beta 1. Osteoclast formation is measured after 17 days by quantifying the number of TRAP-positive multinucleated cells generated in plastic wells on a 96-well plate. Osteoclast activity is measured after 17 days by quantifying the area of resorbed bone on bovine cortical bone slices placed in wells on a 96-well plate. Treatment with rapamycin or the rapamycin derivative, e.g. Compound A, starts at the beginning of cell culture, together with the cytokine treatment. Collagen fragments are measured by enzyme linked immunosorbent assay (ELISA).

For experiment [3], the system named is bone-resorbing osteoclasts differentiated from non-adherent bone marrow mononuclear cells. Briefly: Mouse osteoclastogenesis assay (osteoclast formation and activity). Format: cell-based. As for the experimental part:
Non-adherent bone marrow mononuclear cells from 5-week-old male mice cells are differentiated into bone-resorbing osteoclasts by treatment with a cytokine cocktail containing receptor activator of NF kappa B ligand (RANKL), macrophage-colony stimulating factor (M-CSF) and interleukin-1 (IL-1) alpha. Osteoclast formation is measured after 6 days by quantifying the number of tartrate-resistant acid phosphatase (TRAP)-positive multinucleated cells generated in plastic wells on a 48-well plate. Osteoclast activity is measured after 12 days by quantifying the area of resorbed dentine slices placed in wells on a 48-well plate. Treatment with rapamycin or the rapamycin derivative, e.g. Compound A, starts at the beginning of cell culture, together with the cytokine treatment.

In experiment [4] the test system is osteoclast-specific protease cathepsin K. Description: Gene expression in human osteoclasts: cathepsin K. The note with it: human osteoclasts after treatment. Format: cell-based. Here is the method: (§1) A.3 Gene expression is analyzed according to a method known in the art, in human osteoclasts after treatment with rapamycin or a derivative thereof.
Experiment [5] concerns mouse pre-osteoblastic cell line MC3T3-1b. Description: Osteoblast differentiation in MC3T3-1b cells (alkaline phosphatase staining). The format is cell-based. The note with it: MC3T3-1b cells with osteogenic stimulus (BMP-2, ascorbic acid, beta-glycerophosphate); read-out: Alkaline phosphatase (ALP) staining IC50. Here is the method: Osteoblast differentiation is evaluated in mouse pre-osteoblastic cell line MC3T3-1b, stimulated to differentiate with osteogenic stimulus (a mixture of bone morphogenetic protein 2 (BMP-2), ascorbic acid and beta-glycerophosphate). Osteoplast activity is measured by quantifying culture area covered with alkaline phosphate-positive cells on a 48-well plate. Treatment with rapamycin or the rapamycin derivative, e.g. Compound A, starts at the beginning of cell culture, together with the osteogenic stimulus treatment.

For experiment [6], the system named is Cdc2-related serine/threonine PFTAIREI
Description: Gene expression in human osteoclasts: PFTAIREI
The following applies: human osteoclasts after treatment. The format is cell-based. As for the experimental part: as §1

As a reminder, the IC50 is the concentration at which inhibition is half-maximal. As to `CO[C@H]1C[C@@H]2CC[C@@H](C)[C@@](O)(O2)C(=O)C(=O)N2CCCC[C@H]2C(=O)O[C@H]([C@H](C)C[C@@H]2CC[C@@H](OCCO)[C@H](OC)C2)CC(=O)[C@H](C)/C=C(\C)[C@@H](O)[C@@H](OC)C(=O)[C@H](C)C[C@H](C)/C=C/C=C/C=C/1C` [Compound A, 40-O-(2-hydroxyethyl)-rapamycin], in experiment [1], the “effect on trabecular number” value was “inhibits reduction of trabecular number”. Moreover, in experiment [1] (3 mg/kg/day, oral), the “inhibition of cancellous bone loss” value is on record as 60%. The IC50 in experiment [2] (ELISA, read-out: Collagen fragment release IC50) came to 4 ± 0.5 nM; in experiment [2] (TRAP-positive multinucleated cells after 17 days, read-out: osteoclast formation IC50) it was 7.7 ± 1.1 nM; in experiment [2] (bovine cortical bone slices, 17 days, read-out: Resorbed area IC50) it was 3.4 ± 0.3 nM; in experiment [3] (TRAP-positive multinucleated cells after 6 days, read-out: osteoclast formation IC50), 10.5 ± 4.6 nM; in experiment [3] (area of resorbed dentine slices after 12 days, read-out: osteoclast activity IC50) it was 0.6 ± 0.3 nM; in experiment [5] it was 13.5 ± 2.4 nM. Moreover, the “reduction of cathepsin K expression” value in experiment [4] was “about 78%”. Besides, the “increase of PFTAIREI expression” value in experiment [6] is “about 300%”.
